Assay results: patent publication US9592307B2, “Compound and photoacoustic imaging contrast medium containing the compound” (CANON KABUSHIKI KAISHA, priority 2012, dated 2017)
Ends that are not written are not given here.

Key:
[1] = test system: Colon 26 mouse colon cancer cells containing artificially introduced HER2 genes; test: Tumor accumulation of PEG including capture molecule, Colon 26 (HER2) versus Colon 26 (WT) tumors; assay type: in vivo; settings: intravenous, 13 nmol in terms of ICG, 24 hours after administration
Excerpt: In the evaluation of tumor accumulation, female outbred line BALB/c Slc-nu/nu mouse (6 week-old at the time of purchase) (Japan SLC Inc.) was used. The mouse was adapted to an environment in which a diet and drinking water were able to be consumed freely for a week before the mouse was transplanted a tumor, while standard diet and bed were employed. About 1 week before an imaging experiment, 1×10^6 of Colon 26 mouse colon cancer cells (RIKEN) were subcutaneously injected into each of the right shoulder and the right thigh of the mouse and 1×10^6 of Colon 26 mouse colon cancer cells containing artificially introduced HER2 genes were subcutaneously injected into each of the left shoulder and the left thigh of the mouse. All tumors became established until the experiment and the weights of the mice were 17 to 22 g. […] The amount of dye in the cancer tissue was quantified by using IVIS (registered trademark) Imaging System 200 Series (XENOGEN) and measuring the fluorescent intensity of the solution of dye extracted from the tumor tissue and the standard solution for calibration in the state of the plastic tube. […]
In addition, ratios of the amount of accumulation into the Colon 26 mouse colon cancer cells containing artificially introduced HER2 genes relative to the amount of accumulation into the Colon 26 mouse colon cancer cells were calculated and are summarized in Table 12. […]

[2] = Retentivity in blood, Colon 26 tumor-bearing mice; assay type: in vivo, mouse; settings: tail vein, 13 nmol dye, 24 hours after administration
Protocol: In order to examine the retentivity in blood and the tumor accumulation of the compound prepared as described above, M5k-ICG, M10k-ICG, M20k-ICG, M30k-ICG, M40k-ICG, and D20k-ICG2 were administered to tail veins of tumor-bearing mice which had been transplanted a Colon 26 cell line. The amount of administration was specified to be 13 nmol in terms of the amount of dye.
A blood sample was taken from a mouse 24 hours after administration, and the blood, 1% Triron, and DMSO were mixed at 2:9:9 in a plastic tube. The amount of dye in the blood was quantified by using IVIS (registered trademark) Imaging System 200 Series (produced by Caliper Life Science Inc.) and measuring the fluorescent intensity in the state of the plastic tube. The proportion of the amount of migration of the dye to the blood relative to the amount (dye 13 nmol) of administration (% injected dose: abbreviated to % ID) per unit weight of the blood is shown in Table 8 as the retentivity of the compound in blood (% ID/g). […]
An intravenous injection of 100 microliters (13 nmol in terms of dye) of M20k-ICGATT into a tumor-bearing mouse model was performed, where a Colon 26 cell was subcutaneously transplanted into the BALB/c Slc-nu/nu mouse. The accumulation in the Colon 26 cell mass and the blood 24 hours after the administration was evaluated by the method described in Example 12.

[3] = rat, ICG administered to the blood alone; cited from earlier work

| Retentivity in blood [2] [% ID] | Molecule | Colon26 (HER2)/Colon26 (WT) Ratio of amount of tumor accumulation [1] | Time after administration at which photoacoustic signal is reduced to the same level as that of the blood [3] |
| --- | --- | --- | --- |
|  | pe-PEG20: PEG ME-200MA (MW 20,000) modified with ICG and peptide MARSGLGGKGSC (also: conjugated to PEG ME-200MA (20 kDa) together with ICG) | 0.76 |  |
| 0.16 | CC1(C)C(/C=C/C=C/C=C/C=C2\N(CCCCS(=O)(=O)O)c3ccc4ccccc4c3C2(C)C)=[N+](CCCCS(=O)(=O)[O-])c2ccc3ccccc3c21 [ICG, Indocyanine Green] |  | several tens of minutes |
|  | pe-PEG40: PEG ME-400MA (MW 40,000) modified with ICG and peptide MARSGLGGKGSC (also: conjugated to PEG ME-400MA (40 kDa) together with ICG) | 0.88 |  |
